Test results from EP0097468A2, “Thio-naphthotriazoles, methods for producing them and their use in treating allergic diseases” (BEECHAM GROUP PLC, priority 1982, dated 1984).

Each compound was assayed on rat PCA (assay: Passive cutaneous anaphylaxis (PCA) in rats). Details: iv, 0.0625 mg/kg, PBS with NaHCO3, time 0 mins before antigen challenge.
Type: in vivo
Procedure: Serum containing heat labile homocytotropic antibody was raised in rats to crystallised ovalbumin (Grade 3 Sigma) by the Method of I.Mota (Immunology 7, 681 (1964)) using Bordetella pertussis vaccine ([…] Burroughs Welcome) as adjuvant.
Passive cutaneous anaphylaxis (PCA) was carried out by a method based on that of Ovary and Bier, (Proc. Soc. Exp. Bio. Med., 81, 584 (1952)) as modified by Goose and Blair (Immunology, 16, 749 (1969)) Male Sprague Dawley rats 230-340 gm were given 0.1 ml of each of six two fold serial dilutions of pooled antiserum in 0.9% saline (Polyfusor Boots) injected intradermally into separate sites on their shaved backs. 72 hours later the rats were challenged by intravenous injection of 0.3 ml of a 1% solution of ovalbumin in isotonic saline buffered with 0.05M, pH 7.2 Sorenson'Buffer (Bactohaemagglutination buffer Difco Laboratories), mixed with 0,2 ml of a 5% solution of Pontamine Sky Blue (6 BX C.l. 24410 Raymond A Lamb) in isotonic saline. The rats were killed after 20 minutes and the diameter of the blue wheals at the antibody injection sites was measured on the outer surface of the skin. The starting dilution of the serum was adjusted so that there was no response, after challenge, at the injection site of the highest dilution and a maximum response at the lowest dilutions. Typically, six twofold serial dilutions of the serum from 1/4 to 1/128 were used.
Compounds were tested for their ability to reduce the diameter of the wheals at those intradermal sites which in control animals gave less than maximum response. Each dose of the compounds was administered to six rats at a measured time prior to intravenous challenge with ovalbumin. Control groups of six rats were given the same volume (0.2 ml: 100g-^1) of carrier fluid at the same time prior to the challenge.
The results were calculated as follows: % inhibition of PCA = 100 (1 - a/b) where a = the sum of the diameters of the wheals produced in the test animal at the sites of antibody dilutions as used in control groups and b = the mean sum of the diameters of the wheals produced in the control group of animals at those antibody sites where at least five out of six of the animals gave less than maximum response. A typical variation in the control group of animals was SEM± 6%.

Work on `C[S+]([O-])c1cccc2c1C(=O)c1nn[nH]c1C2=O` (stereo not shown) [Example 3, 4,9-Dihydro-4,9-dioxo-5-methylsulphinyl-lH-naphtho-[2,3-d]-v-triazole] yielded an inhibition in vivo at 0.0625 mg/kg of 35%.

Same assay, conditions: iv, 0.1 mg/kg, PBS with NaHCO3, time 0 mins before antigen challenge

Compared with `CC[S+]([O-])c1cccc2c1C(=O)c1nn[nH]c1C2=O` (stereo not shown) [Example 5, 4,9-dihydro-4,9-dioxo-5-ethysulphinyl-1H-naphtho[2,3-d]-v-triazole], `CCC[S+]([O-])c1cccc2c1C(=O)c1nn[nH]c1C2=O` (stereo not shown) [Example 8, 4,9-Dihydro-4,9-dioxo-5-propylsulphinyl-1H-naphtho[2,3-d] -v-triazole] is higher in inhibition in vivo at 0.1 mg/kg: 65% for the first, 74% for the second.

`Cc1cc2c(c([S+](C)[O-])c1C)C(=O)c1nn[nH]c1C2=O` (stereo not shown) [Example 11, 6,7-Dimethyl-4,9-dihydro-4,9-dioxo-5-methylsulphinyl-1H-naphtho [2,3-d]-v-triazole] gave an inhibition in vivo at 0.1 mg/kg of 50%.

Same assay, conditions: iv, 0.125 mg/kg, PBS with NaHCO3, time 0 mins before antigen challenge

Going from `CCSc1cccc2c1C(=O)c1nn[nH]c1C2=O` [Example 2, 4,9-Dihydro-4,9-dioxo-5-ethylthio-1H-naphtho[2,3-d]-v-triazole] to `C[S+]([O-])c1cccc2c1C(=O)c1nn[nH]c1C2=O` (stereo not shown) [Example 3, 4,9-Dihydro-4,9-dioxo-5-methylsulphinyl-lH-naphtho-[2,3-d]-v-triazole], the inhibition in vivo at 0.125 mg/kg rises from 31% to 56%.

Same assay, conditions: iv, 0.25 mg/kg, PBS with NaHCO3, time 0 mins before antigen challenge

Going from `CSc1cccc2c1C(=O)c1nn[nH]c1C2=O` [Example 1, 4,9-Dihydro-4,9-dioxo-5-methylthio-lH-naphtho [2,-3-d]-v-triazole] to `CCSc1cccc2c1C(=O)c1nn[nH]c1C2=O` [Example 2, 4,9-Dihydro-4,9-dioxo-5-ethylthio-1H-naphtho[2,3-d]-v-triazole], the inhibition in vivo at 0.25 mg/kg rises from 23% to 27%.

Compound `C[S+]([O-])c1cccc2c1C(=O)c1nn[nH]c1C2=O` (stereo not shown) [Example 3, 4,9-Dihydro-4,9-dioxo-5-methylsulphinyl-lH-naphtho-[2,3-d]-v-triazole] has an inhibition in vivo at 0.25 mg/kg of 79%.

Same assay, conditions: iv, 0.5 mg/kg, PBS with NaHCO3, time 0 mins before antigen challenge

Compared with `CSc1cccc2c1C(=O)c1nn[nH]c1C2=O` [Example 1, 4,9-Dihydro-4,9-dioxo-5-methylthio-lH-naphtho [2,-3-d]-v-triazole], `CCSc1cccc2c1C(=O)c1nn[nH]c1C2=O` [Example 2, 4,9-Dihydro-4,9-dioxo-5-ethylthio-1H-naphtho[2,3-d]-v-triazole] is higher in inhibition in vivo at 0.5 mg/kg: 35% for the first, 40% for the second.

Compared with `C[S+]([O-])c1cccc2c1C(=O)c1nn[nH]c1C2=O` (stereo not shown) [Example 3, 4,9-Dihydro-4,9-dioxo-5-methylsulphinyl-lH-naphtho-[2,3-d]-v-triazole], `CC[S+]([O-])c1cccc2c1C(=O)c1nn[nH]c1C2=O` (stereo not shown) [Example 5, 4,9-dihydro-4,9-dioxo-5-ethysulphinyl-1H-naphtho[2,3-d]-v-triazole] is lower in inhibition in vivo at 0.5 mg/kg: 84% for the first, 39% for the second.

Going from `CCCSc1cccc2c1C(=O)c1nn[nH]c1C2=O` [Example 7, 4,9-Dihyciro-4,9-dioxo-5-propylthio-1H-naphtho[2,3-d]-y-triazole] to `CCC[S+]([O-])c1cccc2c1C(=O)c1nn[nH]c1C2=O` (stereo not shown) [Example 8, 4,9-Dihydro-4,9-dioxo-5-propylsulphinyl-1H-naphtho[2,3-d] -v-triazole], the inhibition in vivo at 0.5 mg/kg rises from 68% to 88%.

Going from `CSc1c(C)c(C)cc2c1C(=O)c1nn[nH]c1C2=O` [Example 10, 6,7-Dimethyl-4,9-dihydro-4,9-dioxo-5-methylthio-1H-naphtho[2,3-d]-v-triazole] to `Cc1cc2c(c([S+](C)[O-])c1C)C(=O)c1nn[nH]c1C2=O` (stereo not shown) [Example 11, 6,7-Dimethyl-4,9-dihydro-4,9-dioxo-5-methylsulphinyl-1H-naphtho [2,3-d]-v-triazole], the inhibition in vivo at 0.5 mg/kg rises from 71% to 88%.

Same assay, conditions: iv, 1.0 mg/kg, PBS with NaHCO3, time 0 mins before antigen challenge

First: CSc1cccc2c1C(=O)c1nn[nH]c1C2=O [Example 1, 4,9-Dihydro-4,9-dioxo-5-methylthio-lH-naphtho [2,-3-d]-v-triazole]
Second: CS(=O)(=O)c1cccc2c1C(=O)c1nn[nH]c1C2=O [Example 4, 4,9-Dihydro-4,9-dioxo-5-methylsulphonyl-lH-naphtho-[2,3-d]-v-triazole]
The inhibition in vivo at 1 mg/kg of the first is higher: 68% for the first, 44% for the second.

Compared with `CCS(=O)(=O)c1cccc2c1C(=O)c1nn[nH]c1C2=O` [Example 6, 4,9-Dihydro-4,9-dioxo-5-ethylsulphonyl-lH-naphtho[2,3-dl-v-triazole], `CCCS(=O)(=O)c1cccc2c1C(=O)c1nn[nH]c1C2=O` [Example 9, 4,9-Dihydro-4,9-dioxo-5-propylsulphonyl-1H-naphtho[2,3-d] -v-triazole] is higher in inhibition in vivo at 1 mg/kg: 39% for the first, 51% for the second.

With `Cc1cc2c(c(S(C)(=O)=O)c1C)C(=O)c1nn[nH]c1C2=O` [Example 12, 6,7-Dimethyl-4,9-dihydro-4,9-dioxo-5-methylsulphonyl-1H-na^phtho [2,3-d]-v-triazole] the inhibition in vivo at 1 mg/kg was 92%.

Same assay, conditions: iv, 5.0 mg/kg, PBS with NaHCO3, time 0 mins before antigen challenge

First: CCCSc1cccc2c1C(=O)c1nn[nH]c1C2=O [Example 7, 4,9-Dihyciro-4,9-dioxo-5-propylthio-1H-naphtho[2,3-d]-y-triazole]
Second: CSc1c(C)c(C)cc2c1C(=O)c1nn[nH]c1C2=O [Example 10, 6,7-Dimethyl-4,9-dihydro-4,9-dioxo-5-methylthio-1H-naphtho[2,3-d]-v-triazole]
The inhibition in vivo at 5 mg/kg of the first is lower: 88% for the first, 94% for the second.

Same assay, conditions: iv, 10.0 mg/kg, PBS with NaHCO3, time 0 mins before antigen challenge

Going from `CS(=O)(=O)c1cccc2c1C(=O)c1nn[nH]c1C2=O` [Example 4, 4,9-Dihydro-4,9-dioxo-5-methylsulphonyl-lH-naphtho-[2,3-d]-v-triazole] to `CCS(=O)(=O)c1cccc2c1C(=O)c1nn[nH]c1C2=O` [Example 6, 4,9-Dihydro-4,9-dioxo-5-ethylsulphonyl-lH-naphtho[2,3-dl-v-triazole], the inhibition in vivo at 10 mg/kg falls from 88% to 82%.

Going from `CCCS(=O)(=O)c1cccc2c1C(=O)c1nn[nH]c1C2=O` [Example 9, 4,9-Dihydro-4,9-dioxo-5-propylsulphonyl-1H-naphtho[2,3-d] -v-triazole] to `Cc1cc2c(c(S(C)(=O)=O)c1C)C(=O)c1nn[nH]c1C2=O` [Example 12, 6,7-Dimethyl-4,9-dihydro-4,9-dioxo-5-methylsulphonyl-1H-na^phtho [2,3-d]-v-triazole], the inhibition in vivo at 10 mg/kg rises from 87% to 92%.
